According to PubChem BioAssay (NCI):
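Growth conditions: 96-well plates. Treatment: test compound, 48 hours, 5 concentrations. Analysis: linear interpolation between bracketing concentrations; unreached endpoints set to highest concentration. GI50 is the concentration that inhibits growth by half. The concentration for full growth arrest is given as TGI.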

Assays:
Assay in all cases: growth of human tumour cells (NCI), 48 h
CCRF-CEM leukemia = test system: CCRF-CEM leukemia
SF-539 CNS = test system: SF-539 CNS
SR leukemia = test system: SR leukemia
MDA-MB-435 = test system: MDA-MB-435
RXF 393 renal = test system: RXF 393 renal
SW-620 colon = test system: SW-620 colon
U251 CNS = test system: U251 CNS
NCI-H226 lung = test system: NCI-H226 lung
M14 melanoma = test system: M14 melanoma
LOX IMVI melanoma = test system: LOX IMVI melanoma
MALME-3M melanoma = test system: MALME-3M melanoma
DU-145 prostate = test system: DU-145 prostate
IGROV1 ovarian = test system: IGROV1 ovarian
SF-268 CNS = test system: SF-268 CNS
OVCAR-5 ovarian = test system: OVCAR-5 ovarian
KM12 colon = test system: KM12 colon
HOP-92 NSCLC = test system: HOP-92 NSCLC
HCT-15 colon = test system: HCT-15 colon
COLO 205 colon = test system: COLO 205 colon
MOLT-4 leukemia = test system: MOLT-4 leukemia
SF-295 CNS = test system: SF-295 CNS
786-0 renal = test system: 786-0 renal
ACHN renal = test system: ACHN renal
MCF7 breast = test system: MCF7 breast
SNB-19 CNS = test system: SNB-19 CNS
SK-MEL-5 melanoma = test system: SK-MEL-5 melanoma
HCT-116 colon = test system: HCT-116 colon
K-562 leukemia = test system: K-562 leukemia
NCI-H460 lung = test system: NCI-H460 lung
SK-MEL-2 melanoma = test system: SK-MEL-2 melanoma
HS 578T breast = test system: HS 578T breast
EKVX NSCLC = test system: EKVX NSCLC
A549 NSCLC = test system: A549 NSCLC
UACC-257 melanoma = test system: UACC-257 melanoma
OVCAR-8 ovarian = test system: OVCAR-8 ovarian
A498 renal = test system: A498 renal
UACC-62 melanoma = test system: UACC-62 melanoma
UO-31 renal = test system: UO-31 renal
TK-10 renal = test system: TK-10 renal
RPMI-8226 leukemia = test system: RPMI-8226 leukemia
SK-OV-3 ovarian = test system: SK-OV-3 ovarian
SNB-75 CNS = test system: SNB-75 CNS
MDA-MB-231 breast = test system: MDA-MB-231 breast
OVCAR-4 ovarian = test system: OVCAR-4 ovarian
T-47D breast = test system: T-47D breast
HL-60(TB) leukemia = test system: HL-60(TB) leukemia
SK-MEL-28 melanoma = test system: SK-MEL-28 melanoma
PC-3 prostate = test system: PC-3 prostate
HCC-2998 colon = test system: HCC-2998 colon
CAKI-1 renal = test system: CAKI-1 renal
BT-549 breast = test system: BT-549 breast
HT29 colon = test system: HT29 colon
NCI-H522 lung = test system: NCI-H522 lung
HOP-62 NSCLC = test system: HOP-62 NSCLC

In the case of `Cc1ccc(N2CCN(C3=C(Cl)C(=O)c4ncccc4C3=O)CC2)cc1`, the GI50 (CCRF-CEM leukemia) is reported as 2.21 µM, the TGI (CCRF-CEM leukemia) is reported as 7.09 µM and the GI50 (SF-539 CNS) is reported as 1.85 µM. For the same molecule, the TGI (SF-539 CNS) was 3.5 µM, the GI50 (SR leukemia) was 0.504 µM and the TGI (SR leukemia) was 4.8 µM. For the same molecule, the GI50 (MDA-MB-435) was 1.91 µM, the TGI (MDA-MB-435) was 3.51 µM and the GI50 (RXF 393 renal) was 1.79 µM. The TGI (RXF 393 renal) was 3.23 µM, the GI50 (SW-620 colon) was 1.47 µM and the TGI (SW-620 colon) was 3.08 µM. For the same molecule, the GI50 (U251 CNS) was 1.79 µM, the TGI (U251 CNS) was 3.42 µM and the GI50 (NCI-H226 lung) was 10.1 µM. It also gave a TGI (NCI-H226 lung) of 26.5 µM, a GI50 (M14 melanoma) of 1.84 µM and a TGI (M14 melanoma) of 3.69 µM. For the same molecule, the GI50 (LOX IMVI melanoma) was 1.52 µM, the TGI (LOX IMVI melanoma) was 2.91 µM and the GI50 (MALME-3M melanoma) was 1.77 µM. It also gave a TGI (MALME-3M melanoma) of 3.34 µM, a GI50 (DU-145 prostate) of 6.05 µM and a TGI (DU-145 prostate) of 18.3 µM. For the same molecule, the GI50 (IGROV1 ovarian) was 1.74 µM, the TGI (IGROV1 ovarian) was 3.21 µM and the GI50 (SF-268 CNS) was 5.91 µM. It also gave a TGI (SF-268 CNS) of 22.2 µM, a GI50 (OVCAR-5 ovarian) of 3.36 µM and a TGI (OVCAR-5 ovarian) of 11.4 µM. The GI50 (KM12 colon) was 17.5 µM, the TGI (KM12 colon) was 32 µM and the GI50 (HOP-92 NSCLC) was 1.63 µM. The TGI (HOP-92 NSCLC) was 3.17 µM, the GI50 (HCT-15 colon) was 1.54 µM and the TGI (HCT-15 colon) was 3.28 µM. For the same molecule, the GI50 (COLO 205 colon) was 1.84 µM, the TGI (COLO 205 colon) was 3.33 µM and the GI50 (MOLT-4 leukemia) was 2.09 µM. The TGI (MOLT-4 leukemia) was 5.59 µM, the GI50 (SF-295 CNS) was 2.12 µM and the TGI (SF-295 CNS) was 4.86 µM. The GI50 (786-0 renal) was 3.35 µM, the TGI (786-0 renal) was 10.2 µM and the GI50 (ACHN renal) was 1.61 µM. It also gave a TGI (ACHN renal) of 2.96 µM, a GI50 (MCF7 breast) of 1.22 µM and a TGI (MCF7 breast) of 3.23 µM. The GI50 (SNB-19 CNS) was 13.4 µM, the TGI (SNB-19 CNS) was 26.4 µM and the GI50 (SK-MEL-5 melanoma) was 1.86 µM. The TGI (SK-MEL-5 melanoma) was 3.77 µM, the GI50 (HCT-116 colon) was 1.62 µM and the TGI (HCT-116 colon) was 2.97 µM. It also gave a GI50 (K-562 leukemia) of 1.35 µM, a TGI (K-562 leukemia) of 8.53 µM and a GI50 (NCI-H460 lung) of 4.49 µM. The TGI (NCI-H460 lung) was 22.6 µM, the GI50 (SK-MEL-2 melanoma) was 2.11 µM and the TGI (SK-MEL-2 melanoma) was 4.48 µM. The GI50 (HS 578T breast) was 3.64 µM, the TGI (HS 578T breast) was 34.5 µM and the GI50 (EKVX NSCLC) was 1.73 µM. The TGI (EKVX NSCLC) was 3.14 µM, the GI50 (A549 NSCLC) was 15 µM and the TGI (A549 NSCLC) was 33.3 µM. It also gave a GI50 (UACC-257 melanoma) of 1.75 µM, a TGI (UACC-257 melanoma) of 3.3 µM and a GI50 (OVCAR-8 ovarian) of 1.6 µM. It also gave a TGI (OVCAR-8 ovarian) of 2.99 µM, a GI50 (A498 renal) of 15 µM and a TGI (A498 renal) of 28.4 µM. For the same molecule, the GI50 (UACC-62 melanoma) was 1.84 µM, the TGI (UACC-62 melanoma) was 3.6 µM and the GI50 (UO-31 renal) was 1.53 µM. The TGI (UO-31 renal) was 3.11 µM, the GI50 (TK-10 renal) was 7.15 µM and the TGI (TK-10 renal) was 18.1 µM. For the same molecule, the GI50 (RPMI-8226 leukemia) was 2.14 µM, the TGI (RPMI-8226 leukemia) was 5.79 µM and the GI50 (SK-OV-3 ovarian) was 12.8 µM. It also gave a TGI (SK-OV-3 ovarian) of 25.8 µM, a GI50 (SNB-75 CNS) of 12.8 µM and a TGI (SNB-75 CNS) of 33.3 µM. For the same molecule, the GI50 (MDA-MB-231 breast) was 1.59 µM, the TGI (MDA-MB-231 breast) was 3.09 µM and the GI50 (OVCAR-4 ovarian) was 1.68 µM. It also gave a TGI (OVCAR-4 ovarian) of 3.29 µM, a GI50 (T-47D breast) of 1.61 µM and a TGI (T-47D breast) of 4.04 µM. It also gave a GI50 (HL-60(TB) leukemia) of 1.35 µM, a TGI (HL-60(TB) leukemia) of 3.87 µM and a GI50 (SK-MEL-28 melanoma) of 2.35 µM. The TGI (SK-MEL-28 melanoma) was 5.25 µM, the GI50 (PC-3 prostate) was 2.85 µM and the TGI (PC-3 prostate) was 11.9 µM. The GI50 (HCC-2998 colon) was 1.77 µM, the TGI (HCC-2998 colon) was 3.38 µM and the GI50 (CAKI-1 renal) was 1.68 µM. For the same molecule, the TGI (CAKI-1 renal) was 3.09 µM, the GI50 (BT-549 breast) was 5.51 µM and the TGI (BT-549 breast) was 17.3 µM. The GI50 (HT29 colon) was 5.05 µM, the TGI (HT29 colon) was 19.3 µM and the GI50 (NCI-H522 lung) was 1.76 µM. The TGI (NCI-H522 lung) was 3.53 µM, the GI50 (HOP-62 NSCLC) was 15.4 µM and the TGI (HOP-62 NSCLC) was 29.4 µM.
